Test results from patent publication US11255855B1, “COVID-19 spike-ACE2 binding assay for drug and antibody screening” (priority 2020, dated 2022).

What was measured:
[1] = tested on: SARS-COV-2-S-driven entry; assay type: cell-based, SARS-CoV-2 spike pseudovirus in A549 cells
VSV-G-driven entry = assay type: cell-based, VSV-G pseudovirus

Compound	inhibition of SARS-COV-2-S-driven entry (in words) [1]	inhibition of VSV-G-driven entry (in words) (VSV-G-driven entry)	blocking effect on pseudovirus entry into host A549 cells [1]
CN(C)C(=O)COC(=O)Cc1ccc(OC(=O)c2ccc(NC(=N)N)cc2)cc1 [camostat, Camostat Mesilate]	No inhibition	–	–
CCN1CCN(C(=O)N[C@@H](C(=O)N[C@@H]2C(=O)N3C(C(=O)O)=C(CSc4nnnn4C)CS[C@H]23)c2ccc(O)cc2)C(=O)C1=O [cefoperazone]	No inhibition	–	–
COc1cc(C(=O)NS(=O)(=O)c2ccccc2C)ccc1Cc1cn(C)c2ccc(NC(=O)OC3CCCC3)cc12 [Zafirlukast]	inhibited	not VSV-G-driven entry	blocking effect
